Results taken from patent publication US9340577B2, “HLA binding motifs and peptides and their uses” (priority 1992, dated 2016).
Read-outs that look alike come from different tables or passages of the source. No end group written: not given here.

How the values were obtained:
Assay in all cases: biochemical
[1] = biological target: DRB1*1302 (Homo sapiens, UniProt P01903+P01911, A100E/A169T/K41T/L162R/M171V/P40S/Q125H/Q178H/Q39Y/Q99D/R42S/S66N/T262R/V115G/W38E/Y61H); assay type: binding
[2] = biological target: DR7 (DRB1*0701) (Homo sapiens, UniProt P01903+P01911, A100R/A102G/A103Q/D57E/D86V/E43K/F76Y/K127E/L162R/M171V/P40G/Q125H/Q99D/R33Q/R42Y/R54Q/S133A/S66F/T210M/V115G/Y107V/Y59L/Y89S); assay type: binding
[3] = biological target: DRB1*0301 (Homo sapiens, UniProt P01903+P01911, A100K/A102G/A103R/A169T/F55Y/I96L/K41T/L162R/M171V/P40S/Q125H/Q178H/Q39Y/R42S/S66N/T106N/T262R/W38E/Y61H); assay type: binding
DRB1*0301, sequence (P01903 26-254 limits assumed, other chains not shown): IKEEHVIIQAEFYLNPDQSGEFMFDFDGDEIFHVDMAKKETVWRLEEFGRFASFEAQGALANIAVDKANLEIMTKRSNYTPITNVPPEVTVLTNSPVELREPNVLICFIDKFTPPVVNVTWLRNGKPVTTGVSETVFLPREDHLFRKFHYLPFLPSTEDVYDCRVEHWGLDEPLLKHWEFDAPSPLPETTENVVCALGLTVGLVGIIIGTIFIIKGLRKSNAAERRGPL

[4] = biological target: DRB1*0405 (Homo sapiens, UniProt P01903+P01911, A100R/A169T/D86S/F76Y/I96L/K127E/L162R/M171V/N62H/P40V/Q125Y/R42H/S133A/S149N/S66Y/V115G/V209L/W38E); assay type: binding
[5] = biological target: DRB1*1201 (Homo sapiens, UniProt P01903+P01911, A100R/A169T/D57E/D86V/F55L/H45Y/K41T/L162R/M171V/P40S/Q125H/Q178H/Q39Y/Q99D/R42G/S66L/T262R/V114A/V67L/W38E/Y59H/Y61H/Y89S); assay type: binding
[6] = biological target: DRB1*0901 (Homo sapiens, UniProt P01903+P01911, A100R/A103E/D57H/D86V/F55Y/F60I/F76Y/I96F/K127E/L162R/M171V/P40D/Q125H/Q99R/R33Q/R42F/S133A/S66N/T210M/V115G/W38K/Y107V/Y59G/Y89S); assay type: binding
[7] = biological target: DRB1*1101 (Homo sapiens, UniProt P01903+P01911, A100R/A169T/A87E/I96F/K41T/L162R/M171V/P40S/Q125H/Q178H/Q39Y/Q99D/R42S/S66Y/T262R/V115G/W38E)
DRB1*1101, sequence (P01903 26-254 limits assumed, other chains not shown): as above

[8] = biological target: DRB5*0101 (Homo sapiens, UniProt P01903+Q30154)
[9] = biological target: DRB1*0802 (Homo sapiens, UniProt P01903+P01911, A100R/A103L/A169T/F76Y/H45Y/I96F/K41T/L162R/M171V/P40S/Q125H/Q178H/Q39Y/Q99D/R218S/R42G/S66Y/V115G/W38E); assay type: binding
[10] = biological target: DRB1*1501 (Homo sapiens, UniProt P01903+P01911); assay type: binding
[11] = biological target: DR4w4 (DRB1*0401) (Homo sapiens, UniProt P01903+P01911, A100K/A169T/F76Y/I96L/K127E/L162R/M171V/N62H/P40V/Q125Y/R42H/S133A/S149N/S66Y/V115G/V209L/W38E); assay type: binding
[12] = biological target: DR1 (DRB1*0101) (Homo sapiens, UniProt P01903+P01911, A100R/D57E/F55L/F60I/F76Y/I96L/L162R/M171V/P40L/Q125E/R42F/V115G/Y59C); assay type: binding
[13] = biological target: DRB4*0101 (Homo sapiens, UniProt P01903+P13762, G164S); assay type: binding

DRB1*1302, sequence (P01903 26-254 limits assumed, other chains not shown): as above

| Compound | IC50 [1] [nM] | IC50 [2] [nM] | IC50 [3] [nM] | IC50 [4] [nM] | IC50 [5] [nM] | IC50 [6] [nM] | IC50 [7] [nM] | IC50 [8] [nM] | IC50 [9] [nM] | IC50 [10] [nM] | IC50 [11] [nM] | IC50 ([7]; Binding affinity DRB1 *1101) [nM] | IC50 ([8]; Binding affinity DRB5 *0101) [nM] | IC50 [12] [nM] | IC50 [13] [nM] |
| --- | --- | --- | --- | --- | --- | --- | --- | --- | --- | --- | --- | --- | --- | --- | --- |
| CC(C)C[C@H](NC(=O)[C@@H](NC(=O)[C@H](Cc1c[nH]c2ccccc12)NC(=O)[C@H](CC(=O)O)NC(=O)[C@H](CCC(=O)O)NC(=O)[C@@H](NC(=O)[C@H](CCCCN)NC(=O)[C@H](Cc1ccc(O)cc1)NC(=O)[C@H](CCCNC(=N)N)NC(=O)[C@H](CO)NC(=O)[C@@H](N)CCC(N)=O)[C@@H](C)O)[C@@H](C)O)C(=O)N[C@@H](CCC(N)=O)C(=O)N[C@@H](CC(=O)O)C(=O)N[C@H](C(=O)N[C@@H](CS)C(=O)O)[C@@H](C)O [Peptide 90.0179] | 71 | 6500 | 335 | 1590 | 193 | 1970 | 2090 | > 20000 | 585 | 345 | 71 | – | – | – | – |
| AQEVHNDAQVLHVLK [Peptide 90.0047] | – | 7800 | 21 | > 20000 | > 20000 | 10200 | – | – | – | 2540 | 4530 | 10700 | > 20000 | 407 | – |
| DDRWPYLHSRLVVFT [Peptide 89.0058] | 2190 | 68 | > 20000 | – | 297 | 158 | – | – | 1700 | 284 | > 20000 | – | > 20000 | 29 | 297 |
| DRGVLILLLIRFKCG [Peptide 89.0099] | – | 384 | 470 | 3340 | 711 | – | – | – | 4730 | – | 1480 | 1630 | 83 | 20 | – |
| ESDMAFEYALLADSN [Peptide 90.0055] | 1850 | – | 591 | – | 16300 | 826 | – | – | 5730 | 428 | 24 | 4680 | – | 57 | 165 |
| GKSLFGMSLMKFLQG [Peptide 89.0019] | 2030 | 16 | 2740 | – | 80 | 148 | – | – | 704 | 2780 | 468 | 1360 | 513 | 17 | 369 |
| IIHLKGDPNSLKCLR [Peptide 90.0228] | 163 | 2540 | 11 | – | 5830 | > 20000 | – | – | 877 | – | 121 | > 20000 | 1330 | – | 1900 |
| ISEVYGDTPEWIQRQ [Peptide 90.0035] | 6.9 | 6870 | 50 | 12800 | > 20000 | > 20000 | – | – | > 20000 | > 20000 | > 20000 | > 20000 | > 20000 | > 20000 | – |
| KIGMLDDATVPCWNY [Peptide 90.0040] | > 20000 | > 20000 | 160 | > 20000 | 12700 | > 20000 | – | – | > 20000 | > 20000 | 490 | > 20000 | > 20000 | 4430 | – |
| KSLFGMSLMKFLQGS [Peptide 89.0020] | 4670 | 21 | > 20000 | – | 944 | 310 | – | – | – | 2110 | 573 | 535 | – | – | 449 |
| KTLIKPATLYAHIQC [Peptide 89.0083] | – | 308 | 1220 | 841 | 422 | – | – | – | 231 | 654 | – | 35 | 5230 | 60 | 51 |
| LKLFLKGVPKKNCIL [Peptide 89.0054] | 3380 | – | 9900 | – | 1730 | 2010 | – | – | 341 | 3350 | 2910 | – | – | 200 | 619 |
| LKSFLKGTPKKNCLV [Peptide 89.0035] | 430 | – | > 20000 | – | 3230 | 2690 | – | – | 208 | 5190 | 320 | – | – | 30 | 4740 |
| LKVLIQPYSIYAHLQ [Peptide 89.0098] | 677 | 26 | 191 | 2240 | 237 | 12800 | – | – | 4770 | 79 | 524 | 681 | 993 | – | – |
| MNYVVWDSIYYITET [Peptide 90.0214] | 17 | 55 | 151 | 452 | 1140 | 888 | – | – | > 20000 | 3090 | – | 1620 | 18300 | 2610 | – |
| PHAFPFDKNGNPVYE [Peptide 90.0106] | 1390 | 7120 | 930 | 7190 | 671 | – | – | – | > 20000 | 2790 | – | > 20000 | > 20000 | 517 | – |
| QQTVCREGVKRRLIL [Peptide 90.0129] | > 20000 | > 20000 | 711 | – | 12700 | 3920 | – | > 20000 | 3740 | > 20000 | 82 | 1020 | – | 5890 | 11 |
| RETIEKLLSKLLCVS [Peptide 89.0006] | 600 | 187 | 13000 | 6170 | 523 | 6480 | – | – | 652 | 232 | > 20000 | 715 | 7070 | 199 | – |
| RLNVCQDKILTHYEN [Peptide 90.0160] | 96 | 7980 | 307 | – | 256 | 50 | – | – | – | 3800 | 3.5 | 372 | 1640 | 2.7 | 0.61 |
| RLTVAKGLSTLLHVP [Peptide 89.0028] | 675 | 180 | 14500 | – | 274 | 399 | – | – | 501 | – | 53 | 232 | – | 46 | 406 |
| RYRFQKYKTLFVDVT [Peptide 90.0019] | 2170 | 43 | 5630 | – | 4510 | 226 | – | – | 407 | 590 | 623 | 728 | – | 74 | 4110 |
| WKAVRHENVLYYKAR [Peptide 90.0230] | 264 | 666 | 76 | – | 415 | – | 2120 | 762 | 613 | – | 718 | – | – | 164 | 189 |
